From patent US20170119776A1, “CHIRAL 2,5-DISUBSTITUTED CYCLOPENTANECARBOXYLIC ACID DERIVATIVES AND USE THEREOF” (BAYER PHARMA AKTIENGESELLSCHAFT, priority 2014, published 2017) come the findings set out here.

The IC50 is the midpoint of a concentration-inhibition curve.

Assay type in all cases: biochemical
The target in experiment [1] is T1, human macrophage elastase (HME/hMMP-12) (Homo sapiens, UniProt P39900).
T1 construct: 0.5 nM HME; purchased R&D Systems 917-MP
Kind of experiment: In vitro HME inhibition test in the presence of serum albumin (2% BSA). The following applies: presence of serum albumin (BSA, 2% w/w). The text has this: The activity of the compounds according to the invention towards HME (MMP-12) is ascertained in an in vitro inhibition test. The HME-mediated amidolytic cleavage of a suitable peptide substrate leads herein to a fluorescent light increase. The signal intensity of the fluorescent light is directly proportional to the enzyme activity. The active concentration of a test compound at which half of the enzyme is inhibited (50% signal intensity of the fluorescent light) is given as IC50 value.
This test corresponds to the standard HME inhibition test described above, but using a modified reaction buffer. This reaction buffer additionally comprises bovine serum albumin (BSA, fatty acid-free, A6003, Sigma-Aldrich) of a final concentration of 2% (w/w), which corresponds to approximately half of the physiological serum albumin content.
Table 1 below gives the IC50 values from these HME inhibition tests for the working examples of the present invention and also for two structurally related comparison compounds from the prior art (as racemate or separated enantiomers)→(sometimes as average values from several independent individual determinations and rounded to two significant places). The IC50 values were determined for racemates and enantiomers from differently generated DMSO stock solutions. Whereas an automatically created DMSO stock solution from the internal substance logistics was used for racemates by means of a standard method, for enantiomers and for a more precise direct comparison of the enantiomers with one another, in each case a freshly produced, manually prepared DMSO stock solution was used.

The next experiment deals with T2, MMP-8 (Homo sapiens, UniProt P22894).
T2 construct: purchased R&D Systems 908-MP
T2 sequence (P22894 101-467): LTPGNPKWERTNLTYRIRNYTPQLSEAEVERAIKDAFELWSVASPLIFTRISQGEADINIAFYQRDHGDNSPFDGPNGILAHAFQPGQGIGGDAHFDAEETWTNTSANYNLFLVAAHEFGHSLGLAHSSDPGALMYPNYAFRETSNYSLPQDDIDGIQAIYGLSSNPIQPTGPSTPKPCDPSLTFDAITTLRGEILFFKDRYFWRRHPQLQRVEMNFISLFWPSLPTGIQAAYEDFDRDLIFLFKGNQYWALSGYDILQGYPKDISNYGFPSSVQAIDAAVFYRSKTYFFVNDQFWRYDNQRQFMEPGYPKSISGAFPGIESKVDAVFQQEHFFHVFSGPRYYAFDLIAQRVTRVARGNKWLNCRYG
Kind of experiment: In vitro MMP-8 inhibition test. From the text:
(§1) The activity strength of the compounds according to the invention towards other MMPs (and therefore their selectivity) is likewise ascertained in in vitro inhibition tests. The MMP-mediated amidolytic cleavage of a suitable peptide substrate also leads here to a fluorescent light increase. The signal intensity of the fluorescent light is directly proportional to the enzyme activity. The active concentration of a test compound at which half of the enzyme is inhibited (50% signal intensity of the fluorescent light) is given as IC50 value.
(§2) Recombinant MMP-8 (R&D Systems, 908-MP) is chemically activated in accordance with the manufacturer's instructions using APMA. 1 μl of the test compound to be analysed (as a solution in DMSO, suitable concentrations e.g. 1 nM to 30 μM) is pipette into 24 μl of activated enzyme (final concentration e.g. 0.5 nM) in reaction buffer (50 mM Tris/HCl pH 7.5, 10 mM CaCl2, 150 mM NaCl, 0.05% Brij®-35) in a white 384-hole microtiter plate (MTP). The enzymatic reaction is started by adding the intramolecularly quenched substrate Mca-Pro-Leu-Gly-Leu-Dpa(Dnp)-Ala-Arg-NH2 (final concentration e.g. 10 μM; R&D Systems, ES-001), such that a total test volume of 50 μl results. The progress of the MMP-8 reaction is measured by measuring the fluorescence intensity (excitation 320 nm, emission 410 nm) over a suitable period (e.g. over 120 min at a temperature of 32° C.).
(§3) The IC50 values were determined for racemates and enantiomers from differently generated DMSO stock solutions. Whereas an automatically produced DMSO stock solution from the internal substance logistics was used for racemates by means of a standard method, in the case of enantiomers a freshly produced, manually prepared DMSO stock solution was used in each case for a more precise direct comparison of the enantiomers with one another.

A further experiment concerns the target T3, MMP-10 (Homo sapiens, UniProt P09238).
T3 construct: purchased R&D Systems 910-MP
Kind of experiment: In vitro MMP-10 inhibition test.
Description: as §1
as §2, with “MMP-10” for “MMP-8”, “910-MP)” for “908-MP)”, “2” for “0.5”, “Mca-Arg-Pro-Lys-Pro-Val-Glu-Nval-Trp-Arg-Lys(Dnp)-NH2” for “Mca-Pro-Leu-Gly-Leu-Dpa(Dnp)-Ala-Arg-NH2”, “ES-002),” for “ES-001),”
as §3

Another experiment concerns the target T4, MMP-12 of the mouse (Mus musculus, UniProt P34960).
T4 construct: purchased R&D Systems 3467-MP
Kind of experiment: In vitro MMP-12 inhibition test of the mouse (standard / high-sensitivity).
Description: as §1
Recombinant MMP-12 of the mouse (R&D Systems, 3467-MP) is autocatalytically activated in accordance with the manufacturer's instructions. 1 μl of the test compound to be analysed (as a solution in DMSO, suitable concentrations e.g. 1 nM to 30 μM) is pipetted into 24 μl of activated enzyme (final concentration e.g. 1 nM) in reaction buffer (50 mM Tris/HCl pH 7.5, 10 mM CaCl2, 150 mM NaCl, 0.05% Brij®-35) in a white 384-hole microtiter plate (MTP). The enzymatic reaction is started by adding the intramolecularly quenched substrate Mca-Lys-Pro-Leu-Gly-Leu-Dpa(Dnp)-Ala-Arg-NH2 (final concentration e.g. 5 μM; R&D Systems, ES-010), such that a total test volume of 50 μl results. The progress of the MMP-12 reaction is measured by measuring the fluorescence intensity (excitation 320 nm, emission 410 nm) over a suitable period (e.g. over 120 min at a temperature of 32° C.).
If subnanomolar IC values are produced for high-potency test substances in the above-described MMP-12 inhibition test of the mouse, then a modified test is used for their more precise determination. Here, a ten-fold lower enzyme concentration is used (final concentration e.g. 0.1 nM), in order to achieve an increased sensitivity of the test. The incubation time of the test is correspondingly chosen to be longer (e.g. 16 hours).
Tables 3A and 3B below give the IC50 values from these tests for the inhibition of rodent MMPs for representative embodiment examples of the present invention and also for two structurally related comparison compounds from the prior art (as racemate and separated enantiomer)→(in part as average values from several independent individual determinations and rounded to two significant places). The IC50 values were determined for racemates and enantiomers from differently generated DMSO stock solutions. Whereas an automatically created DMSO stock solution from the internal substance logistics was used for racemates by means of a standard method, in the case of enantiomers, in each case a freshly produced, manually prepared DMSO stock solution was used for a more precise direct comparison of the enantiomers with one another.

Some results are limits rather than exact numbers.

T3 sequence (P09238 99-476): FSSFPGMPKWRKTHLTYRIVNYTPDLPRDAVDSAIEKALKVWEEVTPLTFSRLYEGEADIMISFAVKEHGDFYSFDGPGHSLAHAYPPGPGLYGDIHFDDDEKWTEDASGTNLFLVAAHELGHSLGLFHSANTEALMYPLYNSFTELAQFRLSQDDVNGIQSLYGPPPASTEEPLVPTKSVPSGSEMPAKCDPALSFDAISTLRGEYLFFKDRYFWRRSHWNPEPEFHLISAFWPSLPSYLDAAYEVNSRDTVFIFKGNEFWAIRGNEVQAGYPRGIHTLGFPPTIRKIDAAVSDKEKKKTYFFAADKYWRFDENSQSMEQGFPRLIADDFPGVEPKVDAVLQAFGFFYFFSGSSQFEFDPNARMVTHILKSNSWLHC
T4 sequence (P34960 110-473): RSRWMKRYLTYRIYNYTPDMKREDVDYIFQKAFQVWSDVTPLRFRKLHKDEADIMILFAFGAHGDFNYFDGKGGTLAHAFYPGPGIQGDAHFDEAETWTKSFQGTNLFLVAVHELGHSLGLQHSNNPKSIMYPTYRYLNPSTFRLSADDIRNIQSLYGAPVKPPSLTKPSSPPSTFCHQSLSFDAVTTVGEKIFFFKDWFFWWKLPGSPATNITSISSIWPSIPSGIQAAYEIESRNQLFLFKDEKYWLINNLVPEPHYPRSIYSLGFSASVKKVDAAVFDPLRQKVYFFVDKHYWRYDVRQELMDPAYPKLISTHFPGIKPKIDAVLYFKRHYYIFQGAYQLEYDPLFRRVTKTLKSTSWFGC
T1 sequence (P39900 106-470): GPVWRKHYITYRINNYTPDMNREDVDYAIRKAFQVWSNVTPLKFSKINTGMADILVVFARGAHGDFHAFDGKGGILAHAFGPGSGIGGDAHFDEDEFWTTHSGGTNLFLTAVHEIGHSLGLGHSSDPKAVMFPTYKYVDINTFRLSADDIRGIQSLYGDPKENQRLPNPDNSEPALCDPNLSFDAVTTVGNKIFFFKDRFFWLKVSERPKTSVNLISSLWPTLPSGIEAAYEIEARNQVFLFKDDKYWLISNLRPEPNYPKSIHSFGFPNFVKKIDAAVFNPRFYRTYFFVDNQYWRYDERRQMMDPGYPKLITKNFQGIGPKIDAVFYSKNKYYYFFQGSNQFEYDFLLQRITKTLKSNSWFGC

On to `O=C(O)[C@H]1[C@H](Cn2nnc3ccccc3c2=O)CC[C@@H]1C(=O)c1ccc(OCc2ccccc2)cc1` [Example 2, (+)-(1S,2S,5R)-2-[4-(Benzyloxy)benzoyl]-5-[(4-oxo-1,2,3-benzotriazin-3(4H)-yl)methyl]cyclopentanecarboxylic acid], for which the half-inhibitory concentration (IC50) in experiment [1] came to 8.4 nM; against MMP-8 it was 10.1 nM; against MMP-10 it was 17.5 nM; at MMP-12 of the mouse, 0.13 nM.
In the same order, the values of `O=C(O)[C@@H]1[C@@H](Cn2nnc3ccccc3c2=O)CC[C@H]1C(=O)c1ccc(-c2ccc(Cl)cc2)cc1` (single isomer, unassigned; enantiomer 2) [Comparative Example A-3, (1RS,2RS,5SR)-2-[(4′-Chlorobiphenyl-4-yl)carbonyl]-5-[(4-oxo-1,2,3-benzotriazin-3(4H)-yl)methyl]cyclopentanecarboxylic acid (enantiomer 2)] are 5.4 nM, under 0.61 nM, under 0.61 nM and 0.1 nM.
Take `CCCCCOc1ccc(C(=O)CC(CCn2nnc3ccccc3c2=O)C(=O)O)cc1` (single isomer, unassigned; enantiomer 1) [Comparative Example B-2, (+)-4-Oxo-2-[2-(4-oxo-1,2,3-benzotriazin-3(4H)-yl)ethyl]-4-[4-(pentyloxy)phenyl]butanoic acid (enantiomer 1)]: the IC50 in experiment [1] turned out to be 170 nM; against MMP-8, 275 nM; at MMP-10, 1900 nM; against MMP-12 of the mouse, 18 nM.
On to `CCCCCOc1ccc(C(=O)CC(CCn2nnc3ccccc3c2=O)C(=O)O)cc1` (racemic) [Comparative Example B-1, (+/−)-4-Oxo-2-[2-(4-oxo-1,2,3-benzotriazin-3(4H)-yl)ethyl]-4-[4-(pentyloxy)phenyl]butanoic acid (racemate)], for which the IC50 worked out at 706 nM at MMP-8, 5700 nM against MMP-10 and 32 nM at MMP-12 of the mouse.
Regarding `O=C(O)[C@H]1[C@H](Cn2nnc3ccccc3c2=O)CC[C@@H]1C(=O)c1ccc(-c2ccc(Cl)cc2)cc1` (racemic) [Comparative Example A-1, (1RS,2RS,5SR)-2-[(4′-chlorobiphenyl-4-yl)carbonyl]-5-[(4-oxo-1,2,3-benzotriazin-3(4H)-yl)methyl]cyclopentanecarboxylic acid (racemate)], the IC50 against MMP-8 is under 0.61 nM; against MMP-10, 4.6 nM; against MMP-12 of the mouse, under 0.61 nM.
As for `O=C(O)[C@H]1[C@H](Cn2nnc3ccccc3c2=O)CC[C@@H]1C(=O)c1ccc(OCc2ccccc2)cc1` (racemic) [Example 1, (+/−)-(1RS,2RS,5SR)-2-[4-(Benzyloxy)benzoyl]-5-[(4-oxo-1,2,3-benzotriazin-3(4H)-yl)methyl]cyclopentanecarboxylic acid (racemate)], the 50% inhibitory concentration (IC50) on MMP-8 turned out to be 9.2 nM; on MMP-10 it was 21 nM; at MMP-12 of the mouse, 0.54 nM.
